Consider seven molecules from US11186541B2, “Potent inhibitors of aspartate N-acetyl-transferase for the treatment of Canavan disease” (The University of Toledo, priority 2016, dated 2021).

Where only a bound is given, the exact number is not on record here.

For one assay, the target named is T1, Recombinant maltose-binding protein-human aspartate N-acetyltransferase (MBP-ANAT) fusion enzyme (Homo sapiens, UniProt Q8N9F0).
T1 construct: His tag (C); made in house; host or cells: E. coli NiCo21(DE3)
T1 sequence (Q8N9F0 1-302): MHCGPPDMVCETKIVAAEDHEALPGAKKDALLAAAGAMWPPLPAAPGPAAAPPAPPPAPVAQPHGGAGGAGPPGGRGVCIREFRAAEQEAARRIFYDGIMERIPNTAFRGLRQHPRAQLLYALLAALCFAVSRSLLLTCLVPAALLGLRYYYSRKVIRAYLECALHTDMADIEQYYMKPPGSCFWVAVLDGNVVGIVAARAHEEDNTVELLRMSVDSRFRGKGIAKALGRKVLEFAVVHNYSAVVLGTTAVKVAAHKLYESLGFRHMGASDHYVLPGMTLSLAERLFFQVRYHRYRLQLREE
The experiment in a line: ANAT activity, DTNB-based assay (inhibitor screening and kinetic evaluation). The class given is biochemical.
Settings: not given
From the text:
ANAT is difficult to purify. […] This can be accomplished, for example, as described in U.S. Provisional Patent Application No. 62/216,700, which is incorporated herein by reference for all purposes. […] An optimized thiol detection assay can be used to kinetically characterize this newly produced enzyme form.
Recombinant maltose-binding protein-human aspartate N-acetyltransferase (MBP-ANAT) fusion enzyme was expressed and purified as described in U.S. Provisional Patent Application No. 62/216,700. Briefly, NiCo21(DE3) competent E. coli cells (New England Biolabs, Ipswich, Mass.) were transformed with an MBP-ANAT-his construct and selected on LB plates with 30 μg/ml kanamycin. Colonies from these plates were used to inoculate starter cultures in LB media. After diluting each starter culture by 100-fold in 1 L of LB media, cell growth was continued for about 2 hours at 37° C. until A600 reached 0.6. IPTG was then added to a final concentration of 0.5 mM, and protein expression was induced at 16° C. for 20 hours. To purify MBP-ANAT, a Ni Sepharose 6 Fast Flow column (GE healthcare, Pittsburgh, Pa.) was equilibrated with Buffer A (20 mM potassium phosphate, pH 7.4, 300 mM sodium chloride, 10% glycerol, and 20 mM imidazole). Cell lysate was loaded on to the column and partially purified ANAT was then eluted with a linear gradient of Buffer B (buffer A containing 400 mM imidazole). The active fractions were pooled and loaded onto an amylose column and highly purified ANAT fusion was then obtained by elution with a 0-10 mM linear maltose gradient. ANAT activity was measured by an established DTNB-based assay using a SpectraMax 190 spectrophotometer plate reader (Molecular Devices, Calif.). A typical activity assay contained 20 mM HEPES, pH 7.4, 150 mM NaCl, 5% glycerol, 40 μM DTNB, 40 μM acetyl-CoA, and 2 mM L-aspartate in a total volume of 200 μl. Reaction was monitored at 412 nm (ε=14.15 mM^−1 cm^−1) for at least 15 minutes.
Three different compound libraries were used for initial screening of ANAT inhibitors. These small compound libraries were assembled in-house: an amino acids library contained 96 compounds, a metabolite library contained 96 compounds, and a second amino acids library contained 64 compounds. An additional constrained analogs library contained 77 compounds that were purchased from commercial sources.
As for `O=C(O)C[C@H](NC(=O)OCc1ccccc1)C(=O)O` [N-[(benzyloxy)carbonyl]-L-aspartic acid], the “ANAT inhibitor potency (in words)” value is listed as “surprisingly high potency”. Take `NC(=O)[C@@H](N)CC(=O)O` [L-aspartic acid amide]: the “ANAT inhibitor potency (in words)” value is recorded as “neither alternative substrates nor inhibitors”.

Still in this assay, the particulars now being: read-out: inhibition constant against ANAT.
Consider `O=C1CC[C@H](C(=O)O)N1` [2-D-pyroglutamic acid], for which the Ki is over 2000 µM. Same read-out and setting: next, `O=C(O)c1cc(-c2ccccc2F)no1` [3-(2-fluoro-phenyl)-isoxazole-5-carboxylic acid]: over 2000 µM; `Cc1noc(-c2cccc(C(=O)O)c2)n1` [3-(3-methyl-1,2,4-oxadiazol-5-yl-benzoic acid]: over 2000 µM. On the same count and under the same terms, next, `O=C(O)CC[C@H](NC(=O)c1ccccc1)C(=O)O` [N-benzoyl-L-glutamate]: 130 µM; `O=C(O)C[C@H](NC(=O)c1ccccc1)C(=O)O` [comparable L-aspartate derivative, sodium N-benzoyl-L-aspartate]: over 2000 µM.
